In brackets after ≈: the same amount, converted by molar mass.
Columns and labels:
Haemophilus influenzae [1] = test: Antimicrobial activity against beta-lactamase negative ampicillin-resistant Haemophilus influenzae assessed as susceptible isolates by broth microdilution method; format: functional
Haemophilus influenzae [2] = test: Antimicrobial activity against beta-lactamase positive (amoxicillin)clavulanate-resistant Haemophilus influenzae by broth microdilution method; format: functional
Haemophilus influenzae [3] = test: Antimicrobial activity against beta-lactamase positive (amoxicillin)clavulanate-resistant Haemophilus influenzae assessed as susceptible isolates by broth microdilution method; format: functional
Haemophilus influenzae [4] = test: Antimicrobial activity against beta-lactamase negative ampicillin-resistant -Haemophilus influenzae by broth microdilution method; format: functional
Haemophilus influenzae [5] = test: Antimicrobial activity against beta-lactamase positive (amoxicillin)clavulanate-resistant Haemophilus influenzae assessed as susceptible isolates by broth microdilution method in presence of beta-lactamase inhibitor Tazobactam; format: functional
Haemophilus influenzae [6] = test: Antimicrobial activity against beta-lactamase negative ampicillin-susceptible Haemophilus influenzae harboring […] mutant gene by broth microdilution method in presence of beta-lactamase inhibitor Tazobactam; format: functional
Haemophilus influenzae [7] = test: Antimicrobial activity against beta-lactamase-positive ampicillin-resistant Haemophilus influenzae harboring fst1 mutant gene assessed as susceptible isolates by broth microdilution method in presence of beta-lactamase inhibitor Tazobactam; format: functional
Haemophilus influenzae [8] = test: Antimicrobial activity against beta-lactamase negative ampicillin-resistant Haemophilus influenzae by broth microdilution method in presence of beta-lactamase inhibitor Tazobactam; format: functional
Haemophilus influenzae [9] = test: Antimicrobial activity against beta-lactamase negative ampicillin-susceptible Haemophilus influenzae harboring […] mutant gene assessed as susceptible isolates by broth microdilution method in presence of beta-lactamase inhibitor Tazobactam; format: functional
Haemophilus influenzae [10] = test: Antimicrobial activity against beta-lactamase-positive ampicillin-resistant Haemophilus influenzae harboring […] mutant gene by broth microdilution method in presence of beta-lactamase inhibitor Tazobactam; format: functional
Haemophilus influenzae [11] = test: Antimicrobial activity against beta-lactamase negative […]-Haemophilus influenzae harboring […] mutant gene by disk diffusion method in presence of beta-lactamase inhibitor Tazobactam; format: functional
Haemophilus influenzae [12] = test: Antimicrobial activity against beta-lactamase positive (amoxicillin)clavulanate-resistant Haemophilus influenzae by broth microdilution method in presence of beta-lactamase inhibitor Tazobactam; format: functional
Haemophilus influenzae [13] = test: Antimicrobial activity against beta-lactamase negative ampicillin-resistant-Haemophilus influenzae harboring […] mutant gene by disk diffusion method in presence of beta-lactamase inhibitor Tazobactam; format: functional
Haemophilus influenzae [14] = test: Antimicrobial activity against beta-lactamase negative ampicillin-resistant Haemophilus influenzae assessed as susceptible isolates by broth microdilution method in presence of beta-lactamase inhibitor Tazobactam; format: functional
Haemophilus influenzae [15] = test: Antimicrobial activity against beta-lactamase positive (amoxicillin)-clavulanate-resistant Haemophilus influenzae harboring fst1 mutant gene and gyrA Asp88Thr mutant gene by broth microdilution method
Haemophilus influenzae [16] = test: Antimicrobial activity against beta-lactamase positive ampicillin-resistant-Haemophilus influenzae gyrA Asp88Asn, parC Ser84Cys and parE Ala369Thr mutant gene by broth microdilution method
Haemophilus influenzae [17] = test: Antimicrobial activity against beta-lactamase negative ampicillin-resistant-Haemophilus influenzae harboring fst1 mutant gene and gyrA Ser84Leu, parC Asn138Ser and parE Ser474Asn mutant gene by broth microdilution method
Haemophilus influenzae [18] = test: Antimicrobial activity against beta-lactamase negative ampicillin-resistant-Haemophilus influenzae harboring fst1 mutant gene and gyrA Asp88Thr and parC Glu88Lys mutant gene by broth microdilution method
Haemophilus influenzae [19] = test: Antimicrobial activity against beta-lactamase positive (amoxicillin)-clavulanate-resistant Haemophilus influenzae harboring fst1 mutant gene and gyrA Ser84Leu/Asp88Gly, parC Glu88Lys and parE VAl392Ile/Asp420Asn mutant gene by broth microdilution method
Haemophilus influenzae [20] = test: Antimicrobial activity against beta-lactamase positive (amoxicillin)-clavulanate-resistant -Haemophilus influenzae harboring fst1 mutant gene and gyrA Ser84Leu, parC Ser84Cys and parE Asp364Thr mutant gene by broth microdilution method
Haemophilus influenzae [21] = test: Antimicrobial activity against beta-lactamase positive (amoxicillin)-clavulanate-resistant Haemophilus influenzae harboring fst1 mutant gene and gyrA Ser84Leu and parE Ala369Thr mutant gene by broth microdilution method
Haemophilus influenzae [22] = test: Antimicrobial activity against beta-lactamase negative ampicillin-susceptible-Haemophilus influenzae harboring gyrA Asp88Gly, gyrB Thr472Ile and parC Asp83Asn mutant gene by broth microdilution method
Haemophilus influenzae [23] = test: Antimicrobial activity against beta-lactamase positive ampicillin-resistant-Haemophilus influenzae gyrA Ser84Leu, parC Ser84Arg/Asn138Ser and parE Asp364Gly mutant gene by broth microdilution method
Haemophilus influenzae [24] = test: Antimicrobial activity against beta-lactamase negative ampicillin-resistant-Haemophilus influenzae harboring fst1 mutant gene and gyrA Ser84Leu mutant gene by broth microdilution method
Haemophilus influenzae [25] = test: Antimicrobial activity against beta-lactamase negative ampicillin-resistant-Haemophilus influenzae harboring fst1 mutant gene and gyrA Ser84Leu, parC Ser133Ala/Asn138Ser mutant gene by broth microdilution method
Haemophilus influenzae [26] = test: Antimicrobial activity against beta-lactamase positive (amoxicillin)-clavulanate-resistant Haemophilus influenzae harboring fst1 mutant gene and gyrA Ser84Leu, parC Ser84Cys and parE Ala369Thr mutant gene by broth microdilution method
Haemophilus influenzae [27] = test: Antimicrobial activity against beta-lactamase positive (amoxicillin)-clavulanate-resistant Haemophilus influenzae harboring fst1 mutant gene and gyrA Ser84Leu, parC Ser84Ile/Asn138Ser mutant gene by broth microdilution method

CO/N=C(\C(=O)N[C@@H]1C(=O)N2C(C(=O)O)=C(CSc3nc(=O)c(O)nn3C)CS[C@H]12)c1csc(N)n1 [CEFTRIAXONE]
Activity (Haemophilus influenzae [1]): 100%
MIC50 (Haemophilus influenzae [2]): 0.12 µg/mL
MIC90 (Haemophilus influenzae [2]): 0.25 µg/mL
Activity (Haemophilus influenzae [3]): 100%
MIC50 (Haemophilus influenzae [4]): 0.25 µg/mL (≈ 0.451 µM)
MIC90 (Haemophilus influenzae [4]): 0.25 µg/mL (≈ 0.451 µM)

CCN1CCN(C(=O)N[C@@H](C(=O)N[C@@H]2C(=O)N3[C@@H]2SC(C)(C)[C@@H]3C(=O)O)c2ccccc2)C(=O)C1=O [PIPERACILLIN]
Activity (Haemophilus influenzae [5]): 100%
MIC (Haemophilus influenzae [6]): ≤ 0.03 µg/mL
MIC50 (Haemophilus influenzae [6]): ≤ 0.03 µg/mL
MIC90 (Haemophilus influenzae [6]): 0.06 µg/mL
Activity (Haemophilus influenzae [7]): 100%
MIC50 (Haemophilus influenzae [8]): 0.06 µg/mL
MIC90 (Haemophilus influenzae [8]): 0.12 µg/mL
Activity (Haemophilus influenzae [9]): 100%
MIC (Haemophilus influenzae [10]): ≤ 0.03 µg/mL
MIC50 (Haemophilus influenzae [10]): ≤ 0.03 µg/mL
MIC90 (Haemophilus influenzae [10]): 0.06 µg/mL
MIC50 (Haemophilus influenzae [2]): 32 µg/mL
MIC90 (Haemophilus influenzae [2]): ≥ 64 µg/mL
inhibition zone (IZ) (Haemophilus influenzae [11]): >=21 mm
MIC50 (Haemophilus influenzae [12]): 0.12 µg/mL
MIC90 (Haemophilus influenzae [12]): 0.25 µg/mL
inhibition zone (IZ) (Haemophilus influenzae [13]): >=21 mm
Activity (Haemophilus influenzae [14]): 100%
MIC50 (Haemophilus influenzae [4]): 0.12 µg/mL (≈ 0.232 µM)
MIC90 (Haemophilus influenzae [4]): 0.25 µg/mL (≈ 0.483 µM)

O=C(O)c1cn(C2CC2)c2cc(N3CCNCC3)c(F)cc2c1=O [CIPROFLOXACIN]
MIC (Haemophilus influenzae [15]): 0.06 µg/mL
MIC (Haemophilus influenzae [16]): 0.25 µg/mL (≈ 0.754 µM)
MIC (Haemophilus influenzae [17]): 0.06 µg/mL (≈ 0.181 µM)
MIC (Haemophilus influenzae [18]): 0.06 µg/mL (≈ 0.181 µM)
MIC (Haemophilus influenzae [19]): 16 µg/mL
MIC (Haemophilus influenzae [20]): 0.25 µg/mL
MIC (Haemophilus influenzae [21]): 0.06 µg/mL
MIC (Haemophilus influenzae [22]): 0.25 µg/mL (≈ 0.754 µM)
MIC (Haemophilus influenzae [23]): 0.25 µg/mL (≈ 0.754 µM)
MIC (Haemophilus influenzae [24]): 0.06 µg/mL (≈ 0.181 µM)
MIC (Haemophilus influenzae [25]): 0.06 µg/mL (≈ 0.181 µM)
MIC (Haemophilus influenzae [26]): 0.06 µg/mL
MIC (Haemophilus influenzae [27]): 0.5 µg/mL

Reference: ChEMBL document CHEMBL1649234, “Antimicrobial activities of piperacillin-tazobactam against Haemophilus influenzae isolates, including beta-lactamase-negative ampicillin-resistant and beta-lactamase-positive amoxicillin-clavulanate-resistant isolates, and mutations in their quinolone resistance-determining regions” (2009)
